Reference: ChEMBL document CHEMBL1201862, “PubChem BioAssay data set” (2004)
Active and inactive are the calls of the source. For most assays here, no stated cut-off is given here; in the data, actives have a measured EC50 and inactives only a lower limit.

Experiments:
[1] = luciferase reporter signal suppression in cells – H4 neuroglioma cells, luminescence, dose response (AID 1990); assay type: functional, cell-based
[2] = Luminescence Cell-Based Dose Response HTS to Identify Inhibitors of 5'UTR Stem-Loop Driven Prion Protein mRNA Translation in H4 Neuroglioblastoma Cells. [Related pubchem assays: 1827 (Project Summary), 1813 (Primary HTS)]; assay type: functional
[3] = molecular target: T1, Heat shock factor protein 1 (Mus musculus, UniProt P38532); assay: decrease of HSF1-responsive luciferase luminescence – cell-based, NIH3T3, dose retest, confirmation (AID 2382); assay type: functional;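 further: NIH3T3 fibroblasts with HSF1-driven luciferase reporter stressed by proteasome inhibitor MG132; luminescence from HSF1-driven luciferase expression after 8 hours of MG132 stress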
T1 sequence (P38532 whole entry): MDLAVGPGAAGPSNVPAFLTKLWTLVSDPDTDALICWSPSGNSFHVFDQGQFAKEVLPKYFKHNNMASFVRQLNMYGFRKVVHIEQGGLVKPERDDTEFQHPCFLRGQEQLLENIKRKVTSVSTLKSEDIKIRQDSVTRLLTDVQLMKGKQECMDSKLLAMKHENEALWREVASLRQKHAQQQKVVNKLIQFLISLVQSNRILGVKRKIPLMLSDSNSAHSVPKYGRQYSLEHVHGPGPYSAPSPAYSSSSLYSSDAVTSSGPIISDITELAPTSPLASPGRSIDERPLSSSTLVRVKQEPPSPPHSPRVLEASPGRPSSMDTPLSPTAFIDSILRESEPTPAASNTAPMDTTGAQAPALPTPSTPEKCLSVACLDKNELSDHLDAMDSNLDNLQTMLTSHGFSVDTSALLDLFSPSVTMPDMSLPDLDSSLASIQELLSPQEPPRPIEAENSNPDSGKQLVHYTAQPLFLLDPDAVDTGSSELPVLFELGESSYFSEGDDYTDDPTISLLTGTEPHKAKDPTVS

[4] = alpha-synuclein stem-loop luciferase translation blockers – H4 neuroglioma cells, luminescence, confirmation (AID 1988); assay type: functional, cell-based
[5] = molecular target: T1, Heat shock factor protein 1; assay: enhancement of HSF1-driven luciferase signal – cell-based, NIH3T3, luminescence, dose retest, confirmation (AID 435004); assay type: functional;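 further: stress induced by proteasome inhibitor MG132 added 30 min after compound; luciferase reporter driven by HSF1 response element in NIH3T3 cells; actives raise luminescence as potentiators of the MG132 stress response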
[6] = molecular target: Luciferin 4-monooxygenase (Photinus pyralis, UniProt P08659); assay: inhibition of purified Photinus pyralis luciferase – biochemical, luminescence, dose response (AID 1891)
Sequence of Luciferin 4-monooxygenase (P08659 whole entry): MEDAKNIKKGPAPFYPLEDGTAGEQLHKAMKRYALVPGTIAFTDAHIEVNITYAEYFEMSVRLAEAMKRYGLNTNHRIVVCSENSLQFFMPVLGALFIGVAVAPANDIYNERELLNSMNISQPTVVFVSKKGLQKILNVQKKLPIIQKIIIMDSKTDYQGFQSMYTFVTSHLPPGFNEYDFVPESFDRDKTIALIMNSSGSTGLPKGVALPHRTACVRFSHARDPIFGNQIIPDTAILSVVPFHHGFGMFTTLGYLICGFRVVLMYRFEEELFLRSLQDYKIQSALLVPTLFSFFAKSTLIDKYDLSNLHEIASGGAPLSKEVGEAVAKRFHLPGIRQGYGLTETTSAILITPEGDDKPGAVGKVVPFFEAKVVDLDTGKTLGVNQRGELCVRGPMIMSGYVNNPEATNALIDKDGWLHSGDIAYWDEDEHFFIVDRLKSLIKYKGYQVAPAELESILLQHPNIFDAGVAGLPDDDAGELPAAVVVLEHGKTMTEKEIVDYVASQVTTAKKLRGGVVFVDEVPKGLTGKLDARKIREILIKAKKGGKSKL

[7] = Luminescence Cell-Based Dose Confirmation HTS to Identify Inhibitors of Platelet Dense Granule Release. [Related pubchem assays: 1663 (Primary HTS), 1678 (Summary of Project)]; assay type: functional
[8] = tested on: BJ; assay: BJ-TERT fibroblast viability loss – cell-based, RAS-independent, luminescence, dose response (AID 1933); assay type: functional; conditions: Homo sapiens
[9] = tested on: BJ; assay: cells; assay type: functional, cell-based; conditions: Homo sapiens
[10] = tested on: BJ; assay: BJ-TERT-LT-ST fibroblast viability loss – cell-based, RAS-independent, luminescence, dose response (AID 1935); assay type: functional; conditions: Homo sapiens;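 further: BJ fibroblasts immortalized with TERT plus LT and ST oncogenes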
[11] = DRD fibroblast viability loss – cell-based, non-viral oncogenic, luminescence, dose response (AID 1934); assay type: functional; conditions: Homo sapiens
[12] = tested on: Streptococcus sp. 'group A'; assay: Streptococcus pyogenes SK(-)GAS viability under kanamycin – luminescence, BacTiterGlo, confirmation, counter-screen for streptokinase expression inhibitor project, dose response (AID 1900); assay type: functional, organism-based
[13] = molecular target: T2, Streptokinase A (Streptococcus pyogenes serotype M1, UniProt P10520); assay: viability-normalized secreted streptokinase activity reduction – plasminogen activation absorbance, OD405, dose response (AID 1914); assay type: functional, Streptococcus pyogenes M1 GAS;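 further: secreted streptokinase activity via plasminogen activation per viability signal from cell pellet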
T2 sequence (P10520 whole entry): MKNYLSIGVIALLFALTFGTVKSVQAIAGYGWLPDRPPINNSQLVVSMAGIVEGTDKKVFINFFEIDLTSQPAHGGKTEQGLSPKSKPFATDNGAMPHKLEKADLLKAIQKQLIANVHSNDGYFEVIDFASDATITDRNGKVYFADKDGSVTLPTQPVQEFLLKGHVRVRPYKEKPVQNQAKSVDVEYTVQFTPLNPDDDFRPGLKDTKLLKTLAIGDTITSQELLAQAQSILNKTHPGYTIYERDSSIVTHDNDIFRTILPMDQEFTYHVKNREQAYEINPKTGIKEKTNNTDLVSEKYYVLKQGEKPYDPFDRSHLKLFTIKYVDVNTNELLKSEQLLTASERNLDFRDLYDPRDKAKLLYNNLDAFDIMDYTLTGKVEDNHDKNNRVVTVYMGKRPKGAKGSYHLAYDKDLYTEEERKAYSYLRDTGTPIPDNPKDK

[14] = tested on: Streptococcus; assay: GAS UMAA2166 growth inhibition – luminescence, BacTiterGlo, counter-screen for streptokinase expression inhibitor project, dose response (AID 1915); assay type: functional, organism-based;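 further: potency for reduction of bacterial viability or growth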
[15] = molecular target: FAD-linked sulfhydryl oxidase ALR (Homo sapiens, UniProt P55789); assay: ALR-catalysed DTT oxidation blockers – biochemical, H2O2 detection, luminescence, cherry-pick, dose response (AID 493248)
Sequence of FAD-linked sulfhydryl oxidase ALR (P55789 whole entry): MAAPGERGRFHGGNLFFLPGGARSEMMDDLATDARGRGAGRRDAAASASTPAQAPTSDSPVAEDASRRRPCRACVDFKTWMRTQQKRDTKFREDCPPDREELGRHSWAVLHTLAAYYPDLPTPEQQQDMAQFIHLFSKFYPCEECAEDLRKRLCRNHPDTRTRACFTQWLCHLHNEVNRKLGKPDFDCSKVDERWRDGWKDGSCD

[16] = molecular target: Cytochrome P450 3A4 (Homo sapiens, UniProt P08684);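 further: CYP3A4 tested as one member of a cytochrome P450 panel screen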
Sequence of Cytochrome P450 3A4 (P08684 whole entry): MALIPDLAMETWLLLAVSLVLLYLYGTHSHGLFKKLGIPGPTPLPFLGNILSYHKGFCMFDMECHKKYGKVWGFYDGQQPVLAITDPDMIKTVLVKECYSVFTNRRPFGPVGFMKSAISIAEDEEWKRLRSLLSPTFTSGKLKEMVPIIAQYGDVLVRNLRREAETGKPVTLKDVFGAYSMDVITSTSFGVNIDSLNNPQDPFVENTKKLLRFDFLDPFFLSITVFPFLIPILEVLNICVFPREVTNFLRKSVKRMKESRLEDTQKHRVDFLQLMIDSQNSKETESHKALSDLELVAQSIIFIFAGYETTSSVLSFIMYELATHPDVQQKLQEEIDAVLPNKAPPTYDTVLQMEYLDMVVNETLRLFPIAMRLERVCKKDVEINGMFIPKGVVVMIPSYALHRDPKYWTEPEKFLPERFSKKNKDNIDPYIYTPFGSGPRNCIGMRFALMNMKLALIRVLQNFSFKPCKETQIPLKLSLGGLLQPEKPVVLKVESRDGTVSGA

[17] = molecular target: Cytochrome P450 2C9 (Homo sapiens, UniProt P11712)
Sequence of Cytochrome P450 2C9 (P11712 whole entry): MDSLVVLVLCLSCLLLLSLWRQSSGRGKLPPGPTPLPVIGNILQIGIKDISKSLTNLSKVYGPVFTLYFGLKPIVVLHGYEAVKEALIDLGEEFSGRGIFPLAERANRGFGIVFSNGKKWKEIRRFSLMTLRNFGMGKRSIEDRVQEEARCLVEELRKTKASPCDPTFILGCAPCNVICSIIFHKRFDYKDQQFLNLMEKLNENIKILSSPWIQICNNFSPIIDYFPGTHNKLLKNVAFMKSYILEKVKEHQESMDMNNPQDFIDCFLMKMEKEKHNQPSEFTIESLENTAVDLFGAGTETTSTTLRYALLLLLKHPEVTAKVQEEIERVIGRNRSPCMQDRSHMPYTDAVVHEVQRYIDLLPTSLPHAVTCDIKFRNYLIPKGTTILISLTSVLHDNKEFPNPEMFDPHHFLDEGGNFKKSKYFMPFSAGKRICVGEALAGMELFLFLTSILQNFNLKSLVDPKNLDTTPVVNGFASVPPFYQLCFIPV

[18] = Trypanosoma cruzi growth suppression in host cells – NIH3T3 host cells, beta-gal luminescence, confirmation (AID 2044); assay type: functional, cell-based;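 further: intracellular parasites grown in NIH/3T3 mouse fibroblasts as host cells; luminescent beta-galactosidase reporter signal from transgenic T. cruzi replicating inside host cells; inhibitors lower the luminescence signal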
[19] = NIH3T3 cell viability loss – ATP luminescence, mouse fibroblasts, counter-screen, dose response (AID 2010); assay type: functional, cell-based;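 further: cells exposed to compound for about 90 hours before reading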
[20] = Luminescence Cell-Based Dose Retest to Confirm Inhibitors of Cancer Stem Cells. [Related pubchem assays (depositor defined):AID2717, AID2721]; assay type: functional; conditions: Homo sapiens

With `Cc1cc(/C(O)=C(/C([S-])=Nc2ccccc2)[n+]2ccccc2)c(C)n1-c1ccccc1` the EC50 [1] was > 120 µM (not active), the EC50 [2] was > 120 µM (not active) and the EC50 [3] was 2.53 µM (active). The EC50 [4] was > 120 µM (not active).
In the case of `CCOC(=S)SCC(=O)N1CCc2cc(OC)c(OC)cc2C1C1C(=O)CC(C)(C)CC1=O` (centres undefined), the EC50 [5] was > 260 µM (inactive).
With `Cc1ccc(C(=O)O/N=C(\N)c2ccccc2)c(Cl)c1` the EC50 [3] was < 0.16 µM (active), the EC50 [6] was 1.03 µM (active) and the EC50 [7] was 2.42 µM (active).
With `CCCCOc1ccc(NC(=O)C(=O)NCCC2=CCCCC2)cc1` the EC50 [8] was > 150 µM (not active), the EC50 [9] was > 150 µM (not active) and the EC50 [10] was > 150 µM (inconclusive). For the same compound, the EC50 [11] was 142 µM (active).
In the case of `CCCc1ccc(-c2cc(N)[nH]n2)cc1`, the EC50 [12] was 30.9 µM (active), the EC50 [13] was > 150 µM (not active) and the EC50 [14] was > 150 µM (not active). The AC50 [15] was 11.3 µM (active).
With `CCCn1nc(C(=O)NNC(=O)c2cccc(S(=O)(=O)NC(C)C)c2)c2ccccc2c1=O` the EC50 [6] was > 112 µM (not active) and the EC50 [7] was > 112 µM (not active).
In the case of `COC(=O)c1cn(NC(=O)C2CCC(C)CC2)c(=O)c2ccccc12` (centres undefined), the EC50 [5] was > 260 µM (inactive).
For `O=C(Nc1cccc(NC(=O)c2cccnc2Cl)c1)c1ccco1`, the EC50 [6] was > 112 µM (not active) and the EC50 [7] was 16.6 µM (active).
In the case of `COc1ccc(OC)c(Nc2nc(-c3cccc([N+](=O)[O-])c3)nc3ccccc23)c1`, the EC50 [1] was > 120 µM (not active), the EC50 [2] was 21.7 µM (active) and the EC50 [4] was 69.3 µM (active). The AC50 [16] was 2.82 µM (inconclusive) and the AC50 [17] was 0.355 µM (inconclusive).
For `COCC(C)n1c(C)cc(C(=O)CN2C(=O)NC(Cc3c[nH]c4ccccc34)C2=O)c1C` (centres undefined), the EC50 [6] was > 112 µM (not active) and the EC50 [7] was > 112 µM (not active).
For `Cc1cc2ccccn2c1C(=O)c1cccc([N+](=O)[O-])c1`, the EC50 [8] was > 150 µM (not active), the EC50 [9] was > 150 µM (not active) and the EC50 [10] was > 150 µM (inconclusive). For the same compound, the EC50 [11] was > 150 µM (inconclusive).
For `Cc1cc2oc(=O)cc(CNc3ccccc3F)c2cc1O`, the EC50 [12] was 9.59 µM (active), the EC50 [13] was 51.2 µM (active) and the EC50 [18] was 1.81 µM (active). The EC50 [19] was > 60 µM (not active) and the EC50 [14] was > 150 µM (not active).
For `Nc1cc(-c2ccc(OC(F)(F)F)cc2)nn1-c1ccc(Cl)c(Cl)c1`, the EC50 [12] was 6.98 µM (active), the EC50 [13] was 20 µM (inconclusive) and the EC50 [14] was 11.6 µM (active). The AC50 [20] was 4.74 µM (active).
For `Cc1nc2cc(Nc3ccncc3)ccc2s1`, the EC50 [6] was > 112 µM (not active) and the EC50 [7] was > 112 µM (not active).
In the case of `O=S(=O)(c1cc(Cl)ccc1Cl)N1CC2CCCN2c2ccc(C(F)(F)F)cc21` (centres undefined), the EC50 [5] was > 260 µM (inactive).
For `COc1ccc(C2=CC(c3ccc(OC)c(OC)c3)c3c(c4ccccc4oc3=O)O2)cc1OC` (centres undefined), the EC50 [8] was 5.11 µM (active), the EC50 [3] was > 195 µM (not active) and the EC50 [9] was 51.8 µM (active). The EC50 [10] was 27.7 µM (active) and the EC50 [11] was 17.3 µM (active).
